From the NIST ThermoML archive (doi:10.1016/j.jct.2014.10.014)

Assay: mn = molality of the nth substance listed, in mol/kg
Conditions: 100 kPa, Liquid, Alternating current cell with electrodes

C[C@H](CCC(=O)[O-])[C@H]1CC[C@H]2[C@@H]3CC[C@@H]4C[C@H](O)CC[C@]4(C)[C@H]3C[C@H](O)[C@]12C.[Na+] [sodium deoxycholate] + O
electrical conductivity [S/m]
Conditions	293.15 K	298.15 K	303.15 K	308.15 K	313.15 K	318.15 K
m1 = 0.0005	0.003	0.0035	0.004	0.0035	0.0035	0.004
m1 = 0.001	0.0065	0.0065	0.007	0.0065	0.0065	0.007
m1 = 0.0015	0.0095	0.0095	0.01	0.0095	0.01	0.01
m1 = 0.002	0.0125	0.0125	0.013	0.0124	0.0128	0.013
m1 = 0.0025	0.0155	0.0155	0.016	0.0153	0.016	0.016
m1 = 0.003	0.0185	0.0182	0.0191	0.0185	0.019	0.019
m1 = 0.0035	0.021	0.0213	0.0218	0.022	0.022	0.022
m1 = 0.004	0.0242	0.0243	0.0248	0.025	0.0245	0.025
m1 = 0.0045	0.027	0.0275	0.0274	0.028	0.028	0.028
m1 = 0.005	0.03	0.0305	0.0305	0.031	0.0305	0.031
m1 = 0.0055	0.033	0.0335	0.0335	0.0335	0.0335	0.034
m1 = 0.006	0.0355	0.036	0.0358	0.0365	0.0365	0.037
m1 = 0.0065	0.038	0.0385	0.038	0.0385	0.0385	0.04
m1 = 0.007	0.0399	0.0405	0.0405	0.041	0.0405	0.0425
m1 = 0.0075	0.042	0.0425	0.043	0.0435	0.0425	0.045
m1 = 0.008	0.044	0.0445	0.0455	0.0455	0.045	0.0475
m1 = 0.0085	0.046	0.0465	0.048	0.048	0.0475	0.05
m1 = 0.009	0.048	0.0485	0.0499	0.05	0.0499	0.0525
m1 = 0.0095	0.05	0.051	0.052	0.0525	0.0519	0.055
m1 = 0.01	0.0518	0.053	0.054	0.055	0.0539	0.0575
